Data as given in patent US20100048713A1, “COMPOUNDS ACTING ON THE SEROTONIN TRANSPORTER” (Aarhus Universitet, priority 2006, published 2010).

Columns and labels:
hSERT [1] = molecular target: T1, hSERT (Homo sapiens, UniProt P31645); assay: 5-HT uptake assay with preincubation (whole cells); type: cell-based; settings: whole cell assay with preincubation (title 45 min, text 60 min), 75 nM [3H]-5-HT, 10 min
T1 construct: expressed in transfected cells; the general 96-well protocol names Cos-1
Procedure: 7 μl Fugene-6 was mixed with 112 μl Dulbecco's modified Eagle's medium, and incubated at room temperature for 5 minutes. 4 μg of plasmid were added and the mixture was further incubated at least 15 minutes. Cos-1 cells were trypsinized and suspended in growth media, and the plasmid/Fugene-6 mixture was added followed by dispersion into a 96-well plate.
The 96-well plate was washed with PBSCM to remove DMEM prior to the assay. 50 μl PBSCM containing increasing concentrations of allosteric ligand were added to each well, and incubated for 60 min at room temperature under moderate agitation. […] The plate was subsequently incubated for 10 min at room temperature. The assay was terminated by washing once with PBSCM. The amount of accumulated [^3H]-5-HT was determined by solubilizing cells in scintillant (MicroScint 20) with direct counting of plates in a Packard TopCounter. Data was analyzed by GraphPad software.
We tested the allosteric ligands for their ability to inhibit/activate 5-HT-uptake in the whole-cell assay after 60 minutes preincubation.

hSERT [2] = molecular target: T1, hSERT; assay: Binding assay on whole cells transfected with hSERT ([3H]-citalopram displacement); settings: for EC50: whole cell assay, 35 nM [3H]-citalopram, 60 min room temperature, table title: 45 min preincubation
Procedure: The pcDNA3 plasmid vector containing the hSERT gene was used for transfection (see FIG. 6).
The 96-well plate was washed with PBSCM to remove DMEM prior to the assay. […] The plate was subsequently incubated for 60 min at room temperature. The assay was terminated by washing once with PBSCM. The amount of accumulated [^3H]-citalopram was determined by solubilizing cells in scintillant (MicroScint 20) with direct counting of plates in a Packard TopCounter. Data was analyzed by GraphPad software.

hSERT [3] = molecular target: T1, hSERT; assay: Binding of [125I]-RTI-55 in whole cell assay, hSERT; settings: displacement of [125I]-RTI-55
Excerpt: RTI-55 was used to test for the compounds of the present invention to act as displacers of cocain.
(§1) Because RTI-55 (and cocaine) acts as inhibitors of SERT and DAT, we also performed the binding assay in cells transfected with human DAT.

hDAT = molecular target: T2, hDAT (Homo sapiens, UniProt Q01959); assay: Binding of [125I]-RTI-55 in whole cell assay, cells transfected with human DAT; settings: displacement of [125I]-RTI-55
T2 construct: expressed in transfected cells
Excerpt: A binding assay as described in example 2, wherein the cocaine analogue [^125I] RTI-55 was used to test for the compounds of the present invention to act as displacers of cocain.
as §1

hSERT [4] = molecular target: T1, hSERT; assay: 5-HT uptake assay, 10 min incubation without preincubation; type: cell-based; settings: 75 nM [3H]-5-HT, no preincubation
Procedure: Cells were grown for 48 h to confluency, and prior to uptake assay, plates were washed in PBSCM. All washing steps were carried out in an automatic plate washer. […] The assay was terminated by washing with PBSCM. The amount of accumulated [^3H]-5HT was determined by solubilizing cells in scintillant (MicroScint 20) with direct counting of plates in a Packard TopCounter. Data was analyzed by GraphPad software.
(§2) Dissociation of [^3H]-citalopram from the serotonin transporter has been studied using membrane preparations from SERT-expressing cells. The off-rates of the radioligand were measured in the presence/absence of a fixed concentration of allosteric ligand. […] Additionally, the allosteric impact on the radioligand in the absence of citalopram, was studied by combining 10 μM fluoxetine and 200/2000 μM allosteric ligand in the dissociation buffer. […] The cells were incubated for 10 minutes before the assay was terminated by washing in PBSCM.

hSERT [5] = molecular target: T1, hSERT; assay: Binding of [3H]-citalopram to membrane preparations; settings: 35 nM [3H]-citalopram, 60 min RT
Procedure: (§3) 17.5 μl Fugene-6 (Roche Molecular Biochemicals) were mixed with 280 μl Dulbecco's modified Eagle's medium, and incubated at room temperature for 5 minutes. 10 μg of plasmid were added and the mixture was further incubated at least 15 minutes. […] Prior to harvesting the dish was rinsed in PBS. Cells were harvested with a cell scraper in buffer 1 (50 mM Tris-base, 150 mM NaCl, 20 mM EDTA, pH 7.4). After centrifugation (3000 g at 4° C. for 10 mins), cells were suspended and homogenized with an IKA Ultra-Turrax from Rose Scientific Ltd (Edmonton, Alberta, Canada) for 20 s in buffer 1. Membranes were pelleted by ultracentrifugation (12 000 g at 4° C. for 15 min) and homogenization was repeated in buffer 1. Finally, after ultracentrifugation (12000 g, 4° C., 15 min) membranes were resuspended in 1 ml buffer 3 (50 mM Tris-base, 120 mM NaCl, 5 mM KCl, pH 7.4) and stored at −80° C.
A dilution series of the allosteric ligand was prepared in buffer 3 containing 70 nM [^3H]-citalopram. […] The mixture was incubated under moderate agitation at RT for 60 min. Reactions were terminated by filtration through GF/C glass-fibre filters (Unifilter, Perkin Elmer Life Sciences), preincubated with 40 μl 0.5 % polyethyleneimine, using a Pachard Bell cell harvester, and subsequently washed three times with water. Filters were soaked in 40 μl Microscint 20 scintillation liquid (Pachard Bell). Bound radioactivity was determined by direct counting of plates using a Packard Bell microplate scintillation counter. Displacing curves were obtained by plotting residual binding vs. log concentration of the displacing ligand.

hSERT [6] = molecular target: T1, hSERT; assay: Dissociation assay with [3H]-citalopram and hSERT membrane preparations; type: binding; settings: for Stabilises dissociation of [3H]-citalopram: own effect (10 uM fluoxetine) (concentration which affects dissociation): 10 uM fluoxetine in dissociation buffer; for Stabilises dissociation of [3H]-citalopram: 15 uM citalopram (concentration which affects dissociation): 15 uM citalopram in dissociation buffer
Procedure: as §3
Dissociation assay with [^3H]-citalopram and membrane preparations SERT-[^3H]-citalopram complex was formed by incubating hSERT membrane preparation and radioligand in buffer 3 during a 60 min incubation at 4° C. Radioligand was present at a concentration 10 times the Kd value. The time kinetic of dissociation was followed by adding 10 μL complex solution to 250 μL buffer 3 in 96-well plates and incubating subsequently for increasing time intervals at RT. Reactions were terminated by filtration through GF/C glass-fibre filters (Unifilter, Perkin Elmer Life Sciences), preincubated with 40 μl 0.5 % polyethyleneimine, using a Pachard Bell cell harvester, and subsequently washed three times with water. Filters were soaked in 40 μl Microscint 20 scintillation liquid (Pachard Bell). Bound radioactivity was determined by direct counting of plates using a Packard Bell microplate scintillation counter. Dissociation curves were obtained by plotting residual binding vs. time of dissociation.
The interaction of the allosteric ligand with the allosteric mechanism used by citalopram was studied by combining allosteric ligand and citalopram in the dissociation buffer. The interaction of the allosteric ligand with the radioligand was studied by combining the allosteric ligand and fluoxetine in the dissociation buffer.
as §2

T2 sequence (Q01959 whole entry): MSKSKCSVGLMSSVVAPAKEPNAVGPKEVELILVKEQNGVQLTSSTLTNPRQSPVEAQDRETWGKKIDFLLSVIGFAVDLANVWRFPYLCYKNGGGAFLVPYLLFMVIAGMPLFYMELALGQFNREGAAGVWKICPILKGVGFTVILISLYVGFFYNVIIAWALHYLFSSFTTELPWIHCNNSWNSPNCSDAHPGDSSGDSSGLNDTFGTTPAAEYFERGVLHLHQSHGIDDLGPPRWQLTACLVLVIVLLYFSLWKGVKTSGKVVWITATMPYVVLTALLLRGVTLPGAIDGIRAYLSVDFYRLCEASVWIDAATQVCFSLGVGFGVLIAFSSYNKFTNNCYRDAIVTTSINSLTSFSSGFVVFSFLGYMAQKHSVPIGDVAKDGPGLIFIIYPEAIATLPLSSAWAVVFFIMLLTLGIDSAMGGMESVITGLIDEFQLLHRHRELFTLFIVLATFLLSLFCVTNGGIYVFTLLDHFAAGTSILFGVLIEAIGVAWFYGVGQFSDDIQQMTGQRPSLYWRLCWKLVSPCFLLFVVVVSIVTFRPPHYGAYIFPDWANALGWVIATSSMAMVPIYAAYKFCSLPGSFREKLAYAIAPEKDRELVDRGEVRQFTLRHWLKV
T1 sequence (P31645 whole entry): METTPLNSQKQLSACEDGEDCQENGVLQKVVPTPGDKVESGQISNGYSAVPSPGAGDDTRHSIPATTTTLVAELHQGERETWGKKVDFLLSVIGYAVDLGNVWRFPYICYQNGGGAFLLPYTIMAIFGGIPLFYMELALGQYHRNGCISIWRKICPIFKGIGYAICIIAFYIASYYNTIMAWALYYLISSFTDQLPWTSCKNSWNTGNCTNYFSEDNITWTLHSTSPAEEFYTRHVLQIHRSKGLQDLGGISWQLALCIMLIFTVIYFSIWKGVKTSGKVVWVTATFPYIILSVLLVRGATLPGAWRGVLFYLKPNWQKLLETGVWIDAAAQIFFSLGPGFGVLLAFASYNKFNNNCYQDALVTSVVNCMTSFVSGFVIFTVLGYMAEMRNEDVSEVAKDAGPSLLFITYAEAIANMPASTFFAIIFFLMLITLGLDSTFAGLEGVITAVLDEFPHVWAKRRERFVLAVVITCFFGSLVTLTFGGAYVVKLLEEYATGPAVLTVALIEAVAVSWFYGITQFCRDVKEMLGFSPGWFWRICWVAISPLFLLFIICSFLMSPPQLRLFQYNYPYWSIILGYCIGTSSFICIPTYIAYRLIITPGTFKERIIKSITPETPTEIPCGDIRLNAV

IC50 (hSERT [1])	EC50 (hSERT [2])	EC50 (hSERT [3])	EC50 (hDAT)	concentration that increases the allosteric impact on dissociation by 15 μM citalopram (FIG. 7) (hSERT [6]; 15 μM citalopram)	displacement of the radioligand (FIG. 3) (hSERT [2]; increasing concentrations, 60 minutes incubation at room temperature)	SMILES	5-HT uptake (effect) (hSERT [4])	Binding of [3H]-citalopram (Bmax) (hSERT [5])	Stabilises dissociation of [3H]-citalopram: own effect (10 uM fluoxetine) (concentration which affects dissociation) (hSERT [6])	Stabilises dissociation of [3H]-citalopram: 15 uM citalopram (concentration which affects dissociation) (hSERT [6])	5-HT uptake (effect) (hSERT [4]; listed as PefaCl)
275 µM	185 µM	220 µM	138 µM	–	–	O=C(O)c1ccc2ccccc2c1O [TS27]	–	–	–	–	–
> 2000 µM	> 2000 µM	–	–	2000 µM	–	Cc1ccc(S(N)(=O)=O)cc1 [TS1]	Increase	No effect	2000 µM	200 µM	–
> 2000 µM	1050 µM	–	–	–	–	C=CS(=O)(=O)c1ccccc1 [TS17]	–	No effect	2000 µM	2000 µM	–
–	–	–	–	–	–	O=S(=O)(Cl)c1ccccc1 [BSC, benzenesulfonyl chloride]	Increase	No effect	–	3000 µM	–
735 µM	1420 µM	> 2000 µM	> 2000 µM	–	–	OB(O)c1ccccc1 [TS3]	–	–	–	–	–
> 2000 µM	276 µM	510 µM	288 µM	–	–	O=C(O)c1c(O)ccc2ccccc12 [TS28]	–	–	–	–	–
453 µM	54 µM	1.1 µM	2.9 µM	–	–	Nc1c(O)cc(S(=O)(=O)O)c2ccccc12 [TS16]	–	–	–	–	–
–	523 µM	269 µM	212 µM	–	–	Nc1ccc(S(=O)(=O)O)c2ccccc12 [TS12]	–	–	–	–	–
> 2000 µM	–	–	–	–	–	Nc1cccc2cccc(S(=O)(=O)O)c12 [TS11]	–	–	–	–	–
> 2000 µM	990 µM	> 2000 µM	> 2000 µM	–	–	CC(=O)c1ccccc1 [TS9]	–	–	–	–	–
> 2000 µM	1390 µM	–	–	–	–	CN(C)c1cccc2c(S(=O)(=O)Cl)cccc12 [TS7]	–	–	–	–	–
15.9 µM	1020 µM	–	–	–	–	Cc1ccc2ccccc2c1[N+](=O)[O-] [TS23]	–	–	–	–	–
25.9 µM	> 2000 µM	–	–	–	–	O=[N+]([O-])c1ccc(F)c2ccccc12 [TS25]	–	–	–	–	–
1150 µM	> 2000 µM	–	–	–	–	NC(=O)c1ccccc1 [TS10]	–	–	–	–	–
> 2000 µM	> 2000 µM	–	–	–	–	[C-]#[N+]CS(=O)(=O)c1ccc(C)cc1 [TS15]	No effect	No effect	2000 µM	2000 µM	–
60 µM	> 2000 µM	–	–	–	–	N#Cc1cccc2ccccc12 [TS21]	–	–	–	–	–
–	–	–	–	–	–	O=S(=O)(Cl)Cc1ccccc1 [PMSC]	Increase	No effect	–	No effect	–
422 µM	950 µM	–	–	–	displaces the radioligand	Nc1cccc2c(N)cccc12 [TS19]	–	–	–	–	–

SMILES	IC50 (hSERT [1])	EC50 (hSERT [2])	EC50 (hSERT [3])	EC50 (hDAT)	concentration that increases the allosteric impact on dissociation by 15 μM citalopram (FIG. 7) (hSERT [6]; 15 μM citalopram)	displacement of the radioligand (FIG. 3) (hSERT [2]; increasing concentrations, 60 minutes incubation at room temperature)	5-HT uptake (effect) (hSERT [4])	Binding of [3H]-citalopram (Bmax) (hSERT [5])	Stabilises dissociation of [3H]-citalopram: own effect (10 uM fluoxetine) (concentration which affects dissociation) (hSERT [6])	Stabilises dissociation of [3H]-citalopram: 15 uM citalopram (concentration which affects dissociation) (hSERT [6])	5-HT uptake (effect) (hSERT [4]; listed as PefaCl)
CCOS(=O)(=O)c1cccc2ccccc12 [1-NSC react. EtOH, 1-Naphthalene sulfonic acid ethyl ester]	110 µM	533 µM	462 µM	–	–	–	Inhibition	Displace	300 µM	300 µM	–
COS(=O)(=O)c1ccc(C)cc1 [TS6]	> 2000 µM	> 2000 µM	–	–	–	–	Increase	No effect	No effect	2000 µM	–
O=[N+]([O-])c1cccc2ccccc12 [TS22]	2.9 µM	> 2000 µM	–	–	–	–	Inhibition	No effect	200 µM	200 µM	–
O=P(O)(O)c1ccccc1 [TS4]	> 2000 µM	> 2000 µM	–	–	–	–	–	–	–	–	–
NCCc1ccc(S(=O)(=O)Cl)cc1 [PefaCI, 4-(2-Aminoethyl)benzenesulfonyle cloride]	–	1650 µM	–	–	–	–	Increase	No effect	2000 µM	2000 µM	increases 5-HT uptake
Cc1ccc(S(=O)(=O)N(C)N=O)cc1 [TS13]	> 2000 µM	> 2000 µM	–	–	–	–	Increase	displace	200 µM	200 µM	–
Clc1cccc2ccccc12 [TS20]	373 µM	> 2000 µM	–	–	–	–	Inhibition	No effect	200 µM	200 µM	–
O=S(=O)(c1ccccc1)c1ccccc1 [TS5]	> 2000 µM	> 2000 µM	–	–	–	–	–	–	–	–	–
Nc1cccc2ccccc12 [TS18]	458 µM	1030 µM	–	–	–	–	–	–	–	–	–
